Measured values taken from patent publication US10670605B2, “Cysteine reactive probes and uses thereof” (The Scripps Research Institute, priority 2015, dated 2020).

What was measured:
Experiment in all cases: Competitive isoTOP-ABPP in situ (fragment-treated cells)
Format in all cases: cell-based
[1] = biological target: T1, cysteines in MDA-MB-231 and Ramos cells (Homo sapiens, UniProt Q96RN5)
T1 sequence (Q96RN5 1-788): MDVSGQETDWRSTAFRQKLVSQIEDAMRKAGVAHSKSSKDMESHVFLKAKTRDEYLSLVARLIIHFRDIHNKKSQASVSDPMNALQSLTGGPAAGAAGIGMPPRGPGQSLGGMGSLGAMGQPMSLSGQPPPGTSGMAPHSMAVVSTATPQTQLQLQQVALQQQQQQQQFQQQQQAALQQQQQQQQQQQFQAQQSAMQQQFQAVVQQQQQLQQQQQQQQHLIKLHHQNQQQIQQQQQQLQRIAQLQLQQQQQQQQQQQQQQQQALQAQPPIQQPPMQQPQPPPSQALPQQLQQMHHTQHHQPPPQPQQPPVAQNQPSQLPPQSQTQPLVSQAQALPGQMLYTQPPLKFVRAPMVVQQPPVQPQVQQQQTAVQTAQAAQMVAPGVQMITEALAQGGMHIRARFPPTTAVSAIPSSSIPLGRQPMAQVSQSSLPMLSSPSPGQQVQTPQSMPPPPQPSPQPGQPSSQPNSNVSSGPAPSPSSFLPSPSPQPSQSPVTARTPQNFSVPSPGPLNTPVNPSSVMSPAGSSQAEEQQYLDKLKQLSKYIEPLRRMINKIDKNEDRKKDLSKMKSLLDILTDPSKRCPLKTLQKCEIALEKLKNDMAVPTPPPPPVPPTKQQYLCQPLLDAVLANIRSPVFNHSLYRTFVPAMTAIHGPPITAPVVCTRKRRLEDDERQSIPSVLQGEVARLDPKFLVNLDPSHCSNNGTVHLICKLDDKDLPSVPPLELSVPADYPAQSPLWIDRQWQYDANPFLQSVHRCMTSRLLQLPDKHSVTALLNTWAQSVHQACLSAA

[2] = biological target: T2, cysteines in MDA-MB-231 and Ramos cells (Homo sapiens, UniProt Q96T76)
T2 sequence (Q96T76 1-1030): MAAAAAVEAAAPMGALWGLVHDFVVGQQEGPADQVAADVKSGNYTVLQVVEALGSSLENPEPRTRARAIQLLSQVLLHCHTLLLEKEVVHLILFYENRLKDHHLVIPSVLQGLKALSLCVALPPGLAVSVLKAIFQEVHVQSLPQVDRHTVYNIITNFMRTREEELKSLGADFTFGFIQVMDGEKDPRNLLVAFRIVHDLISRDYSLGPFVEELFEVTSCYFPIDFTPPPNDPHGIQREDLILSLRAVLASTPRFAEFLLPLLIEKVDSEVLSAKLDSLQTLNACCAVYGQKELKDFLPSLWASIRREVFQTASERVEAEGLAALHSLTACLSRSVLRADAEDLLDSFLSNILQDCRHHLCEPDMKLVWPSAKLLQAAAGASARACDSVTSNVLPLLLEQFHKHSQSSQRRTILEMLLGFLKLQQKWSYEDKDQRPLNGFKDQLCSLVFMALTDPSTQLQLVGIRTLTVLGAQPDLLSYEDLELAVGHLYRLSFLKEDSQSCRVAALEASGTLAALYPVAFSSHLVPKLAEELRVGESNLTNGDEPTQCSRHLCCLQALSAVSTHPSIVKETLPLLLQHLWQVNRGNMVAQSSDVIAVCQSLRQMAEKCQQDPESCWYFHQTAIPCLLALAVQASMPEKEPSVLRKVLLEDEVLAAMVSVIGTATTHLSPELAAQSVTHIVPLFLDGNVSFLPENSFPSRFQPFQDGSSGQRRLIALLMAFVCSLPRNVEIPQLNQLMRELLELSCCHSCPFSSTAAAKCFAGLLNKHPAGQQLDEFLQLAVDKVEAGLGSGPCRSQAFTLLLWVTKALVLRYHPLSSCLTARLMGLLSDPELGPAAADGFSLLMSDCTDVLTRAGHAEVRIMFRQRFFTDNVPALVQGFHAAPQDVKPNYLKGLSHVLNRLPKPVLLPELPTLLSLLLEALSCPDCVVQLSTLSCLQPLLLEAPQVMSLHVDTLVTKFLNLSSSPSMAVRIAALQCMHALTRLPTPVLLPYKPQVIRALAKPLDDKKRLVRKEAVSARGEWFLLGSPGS

[3] = biological target: T3, cysteines in MDA-MB-231 and Ramos cells (Homo sapiens, UniProt Q9NQR4)
T3 sequence (Q9NQR4 1-276): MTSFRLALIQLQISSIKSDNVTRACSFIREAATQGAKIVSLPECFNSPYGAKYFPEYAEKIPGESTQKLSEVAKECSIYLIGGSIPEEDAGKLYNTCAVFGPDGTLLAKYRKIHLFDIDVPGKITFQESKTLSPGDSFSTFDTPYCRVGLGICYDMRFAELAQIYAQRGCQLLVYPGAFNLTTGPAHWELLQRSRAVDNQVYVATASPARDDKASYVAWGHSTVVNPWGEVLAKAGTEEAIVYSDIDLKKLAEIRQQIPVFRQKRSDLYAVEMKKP

[4] = biological target: T4, cysteines in MDA-MB-231 and Ramos cells (Homo sapiens, UniProt Q9ULW0)
T4 sequence (Q9ULW0 1-747): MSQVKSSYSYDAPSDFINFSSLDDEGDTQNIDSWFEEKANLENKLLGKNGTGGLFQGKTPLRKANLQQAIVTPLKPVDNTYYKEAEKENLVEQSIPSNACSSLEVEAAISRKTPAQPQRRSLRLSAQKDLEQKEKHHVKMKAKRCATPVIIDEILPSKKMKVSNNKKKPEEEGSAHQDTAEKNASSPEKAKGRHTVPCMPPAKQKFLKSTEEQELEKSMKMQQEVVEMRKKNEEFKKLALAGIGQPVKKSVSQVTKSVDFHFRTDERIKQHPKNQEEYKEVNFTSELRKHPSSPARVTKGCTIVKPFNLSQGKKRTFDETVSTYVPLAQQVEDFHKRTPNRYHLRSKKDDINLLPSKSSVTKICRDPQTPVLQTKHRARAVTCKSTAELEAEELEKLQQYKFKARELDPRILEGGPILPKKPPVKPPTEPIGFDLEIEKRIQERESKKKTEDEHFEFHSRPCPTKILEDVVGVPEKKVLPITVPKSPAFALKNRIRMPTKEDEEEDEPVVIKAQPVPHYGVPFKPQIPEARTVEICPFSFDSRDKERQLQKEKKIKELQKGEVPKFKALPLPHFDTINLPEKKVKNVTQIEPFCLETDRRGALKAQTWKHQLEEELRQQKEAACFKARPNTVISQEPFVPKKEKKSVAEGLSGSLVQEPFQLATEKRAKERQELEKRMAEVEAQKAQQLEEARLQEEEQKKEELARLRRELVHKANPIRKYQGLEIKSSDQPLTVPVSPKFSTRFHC

Row | SMILES | isoTOP-ABPP ratio Q96T76_C848 ([2]; 200 μM, insitu, 231) | isoTOP-ABPP ratio Q9NQR4_C153 ([3]; 200 μM, insitu, 231) | isoTOP-ABPP ratio Q9ULW0_C536 ([4]; 200 μM, insitu, 231) | isoTOP-ABPP ratio Q96RN5_C618 ([1]; 200 μM, insitu, 231) | also measured
1 | COc1ccc2c(c1)CCCN2C(=O)CCl [compound 2] | – | – | – | – | isoTOP-ABPP reactivity O96RN5_C618 MED15 ([1]; 200 μM, insitu, 231): 6.4; isoTOP-ABPP reactivity Q96T76_C848 MMS19 ([2]; 200 μM, insitu, 231): 3.9; isoTOP-ABPP reactivity Q9NQR4_C153 N1T2 ([3]; 200 μM, insitu, 231): 13.1; isoTOP-ABPP reactivity Q9ULW0_C536 TPX2 ([4]; 200 μM, insitu, 231): 20.0
2 | COc1ccc(C2CC(c3cccs3)=NN2C(=O)CCl)cc1 (centres unmarked) [compound 4] | – | – | – | – | isoTOP-ABPP reactivity O96RN5_C618 MED15 ([1]; 100 μM in situ 231): 4.5; isoTOP-ABPP reactivity Q96T76_C848 MMS19 ([2]; 100 μM in situ 231): 20.0; isoTOP-ABPP reactivity Q9NQR4_C153 N1T2 ([3]; 100 μM in situ 231): 0.7; isoTOP-ABPP reactivity Q9ULW0_C536 TPX2 ([4]; 100 μM in situ 231): 20.0
3 | COc1cc2c(cc1OC)CN(C(=O)CCl)CC2 [compound 8] | – | – | – | – | isoTOP-ABPP reactivity O96RN5_C618 MED15 ([1]; 200 μM, insitu, 231): 20.0; isoTOP-ABPP reactivity Q96T76_C848 MMS19 ([2]; 200 μM, insitu, 231): 1.7; isoTOP-ABPP reactivity Q9NQR4_C153 N1T2 ([3]; 200 μM, insitu, 231): 20.0; isoTOP-ABPP reactivity Q9ULW0_C536 TPX2 ([4]; 200 μM, insitu, 231): 20.0
4 | O=C(CCl)N1CCC(Cc2ccccc2)CC1 [compound 9] | – | – | – | – | isoTOP-ABPP reactivity Q96T76_C848 MMS19 ([2]; 200 μM, insitu, 231): 20.0; isoTOP-ABPP reactivity Q9NQR4_C153 N1T2 ([3]; 200 μM, insitu, 231): 20.0; isoTOP-ABPP reactivity Q9ULW0_C536 TPX2 ([4]; 200 μM, insitu, 231): 5.7
5 | Cn1cc(S(=O)(=O)N2CCOCC2)cc1C(=O)NC(=O)CCl [compound 11] | – | – | – | – | isoTOP-ABPP ratio Q96RN5_C618 ([1]; 100 μM in situ 231): 1.0; isoTOP-ABPP ratio, cysteine Q96T76_C819 ([2]; 100 μM in situ 231): 0.8; isoTOP-ABPP ratio Q9NQR4_C153 ([3]; 100 μM in situ 231): 3.7; isoTOP-ABPP ratio Q9ULW0_C536 ([4]; 100 μM in situ 231): 1.4
6 | O=C(CCl)NC(=O)NC12CC3CC(CC(C3)C1)C2 [compound 12] | 20.0 | 0.9 | 20.0 | 20.0 | –
7 | O=C(CCl)NC12CC3CC(CC(C3)C1)C2 [compound 21] | 0.7 | 0.9 | 0.9 | 1.0 | –
8 | CC(C)CCOCCNC(=O)CCl [compound 27] | 0.5 | 1.3 | 1.1 | 0.8 | isoTOP-ABPP ratio Q96T76_C819 ([2]; 200 μM, insitu, 231): 0.5
9 | O=C(CCl)N1CCN(CC(=O)N2CCOCC2)CC1 [compound 29] | – | – | – | – | isoTOP-ABPP ratio Q96RN5_C618 ([1]; 200 μM, insitu, ramos): 1.3; isoTOP-ABPP ratio Q96T76_C848 ([2]; 200 μM, insitu, ramos): 1.0; isoTOP-ABPP ratio Q9ULW0_C536 ([4]; 200 μM, insitu, ramos): 1.8
10 | C=CC(=O)N(Cc1cccnc1)c1cc(C(F)(F)F)cc(C(F)(F)F)c1 [compound 31] | 20.0 | 0.6 | – | 0.9 | isoTOP-ABPP ratio Q96T76_C819 ([2]; 200 μM, insitu, 231): 20.0; isoTOP-ABPP ratio Q96T76_C819 ([2]; 200 μM, insitu, ramos): 20.0; isoTOP-ABPP ratio Q9NQR4_C153 ([3]; 200 μM, insitu, ramos): 1.4
11 | C=CC(=O)Nc1cc(F)c(N2CCN(C(=O)OC(C)(C)C)CC2)c(F)c1 [compound 38] | – | 1.1 | 1.2 | 1.4 | isoTOP-ABPP ratio Q96T76_C819 ([2]; 200 μM, insitu, 231): 4.6
12 | O=C(CCl)Nc1cccc2ncccc12 [compound 51] | – | 0.6 | 1.4 | 2.1 | –

Continued, in another order:

Row | isoTOP-ABPP ratio Q96T76_C848 ([2]; 200 μM, insitu, 231) | isoTOP-ABPP ratio Q9NQR4_C153 ([3]; 200 μM, insitu, 231) | isoTOP-ABPP ratio Q9ULW0_C536 ([4]; 200 μM, insitu, 231) | isoTOP-ABPP ratio Q96RN5_C618 ([1]; 200 μM, insitu, 231) | SMILES | also measured
13 | 2.5 | 20.0 | 17.6 | – | O=C(CCl)N1CCN(S(=O)(=O)c2ccccc2F)CC1 [compound 10] | isoTOP-ABPP ratio, cysteine Q96T76_C819 ([2]; 200 μM, insitu, ramos): 3.0
14 | 0.6 | 6.2 | 1.5 | 1.0 | O=C(CCl)NCCc1c[nH]c2ccccc12 [compound 13] | isoTOP-ABPP ratio Q96RN5_C618 ([1]; 200 μM, insitu, ramos): 1.4; isoTOP-ABPP ratio Q96T76_C848 ([2]; 200 μM, insitu, ramos): 1.5; isoTOP-ABPP ratio Q9NQR4_C153 ([3]; 200 μM, insitu, ramos): 12.2
15 | 0.8 | – | 1.0 | 0.7 | COc1ccccc1OCCNC(=O)CCl [compound 28] | –
16 | 0.7 | 0.7 | 1.2 | – | Cc1ccc(C=C(C#N)C(=O)NCCN2CCOCC2)cc1 [compound 41] | isoTOP-ABPP ratio Q96T76_C819 ([2]; 200 μM, insitu, 231): 0.6
17 | 20.0 | 2.0 | 20.0 | 20.0 | CC1CCc2ccccc2N1C(=O)CCl (centres unmarked) [compound 45] | isoTOP-ABPP ratio Q96T76_C819 ([2]; 200 μM, insitu, 231): 20.0
